We go through nine compounds from PMC7443224, “An UPLC-MS/MS Method for Simultaneous Quantification of the Components of Shenyanyihao Oral Solution in Rat Plasma” (BioMed Research International, 2020).

As a reminder, the Cmax is the highest concentration seen after dosing. One may read the Tmax as the time from dosing to the highest level. What is called half-life is how long it takes for the measured level to halve. A higher half-life goes with slow decline.

The series can be described thus: Pharmacokinetic study in rat plasma after oral administration of Shenyanyihao oral solution (UPLC-MS/MS, noncompartmental). The class given is in vivo, Sprague-Dawley rats. To be noted: for Cmax / Tmax / half-life / MRT: male, Sprague-Dawley; for Cmax: plasma; for MRT: read-out: MRT0‐∞. The procedure: Male Sprague-Dawley rats (180–220 g) were purchased from Shanghai SLAC Laboratory Animal Co., Ltd. (Shanghai, China) and housed in an environmentally controlled room with a natural light-dark cycle for 7 days before the experiment was carried out. The male Sprague-Dawley rats were randomly given a dose of 10 g/kg/day of Shenyanyihao oral solution by oral administration for pharmacokinetic experiments. All animal experiments were carried out according to the Guidelines for the Care and Use of Laboratory Animals and were approved by the Animal Ethics Committee of the Second Military Medical University.
The protein precipitation with methanol was applied for sample preparation. 50 μl of plasma spiked with 50 μl of mixed IS solution were thoroughly mixed with 100 μl methanol by vortexing for 30 s. The mixture was centrifuged at 12,000 rpm for 5 min. An aliquot of 100 μl from the supernatant was transferred and subsequently evaporated to dryness by vacuum concentration. Five μl of the supernatant was transferred for the UPLC-MS/MS analysis.
The analytes in plasma were measured by a simple and sensitive UPLC-MS/MS method. Chromatographic analysis was performed on an Agilent 1290 Infinity UPLC system consisting of a binary pump, a surveyor autosampling system, and a thermostatted column compartment. An Agilent Poroshell 120 EC-C18 column (3.0 mm × 100 mm, 2.7 μm) was used for chromatographic separation. The mobile phases of A (acetonitrile) and B (0.1% formic acid aqueous solution) were eluted at a flow rate of 0.4 ml/min with the following gradient conditions: 0-5 min, 50% A; 5-6 min, 50%-90% A; and 6-10 min, 90% A. The column temperature was maintained at 25°C, the autosampler was conditioned at 4°C, and the injection volume was 5 μl. The analysis time was 10 min per sample. An Agilent 6470 tandem mass spectrometer (Agilent Technologies, USA) equipped with an Agilent Jet Stream Technology (AJS) electrospray source interface (ESI) was used for MS detection. The mass spectrometric detection was optimized simultaneously in the positive and negative ion modes by multiple reaction monitoring (MRM). The main MS parameters of the ionized chamber are as follows: capillary voltage at 4000 V (positive)/3500 V (negative), gas temperature at 350°C, drying gas flow at 11 l/min, nebulizer pressure at 40 psi, sheath gas temperature at 400°C, and sheath gas flow at 11 l/min. Data acquisition and analysis were performed using the Agilent MassHunter WorkStation version B.07.00.
The rats were administered orally with Shenyanyihao oral solution. Blood samples from the ophthalmic venous plexus taken at 0.08, 0.17, 0.25, 0.33, 0.5, 1, 1.5, 2, 4, 6, 8, 12, 24, and 48 h after oral administration and at 0 h (predose) were collected (0.2 ml) into heparinized centrifuge tubes. The blood samples were immediately centrifuged at 4000 rpm at 4°C for 5 min, and the supernatant plasma was transferred into another tube and stored at -80°C until treatment.
Pharmacokinetic parameters were analyzed by a noncompartmental method using the WinNonlin7.0 pharmacokinetic program (Pharsight Corp., USA). The maximum concentration (Cmax) and time to reach the maximum concentration (Tmax ) were measured from values obtained from the concentration-time curve. All results were expressed as mean ± standard deviation (SD).

The mark [1] stands for this setting: rat, po, 10 g/kg/day, rat plasma, oral administration of Shenyanyihao oral solution 10 g/kg/day, n = 6, mean ± SD.
Where [2] appears, read: rat plasma, oral administration of Shenyanyihao oral solution 10 g/kg/day, n = 6, mean ± SD.

Each structure is given as a SMILES string. Several values for one entry are separate records, joined by “and”; a condition that tells them apart may be missing. Identical values can stand only once.

`O=c1cc(-c2ccccc2)oc2cc(O)c(O)c(O)c12` [Baicalein, baicalein]: the peak concentration (Cmax) under setting [1] stood at 14.2 ± 2.59 ng/mL. For the same compound, under setting [2], the Tmax worked out at 3.6 ± 0.89 h, the half-life was 11.7 ± 4.78 h, the MRT is 15.2 ± 5.91 h and the “AUC0‐t” value turned out to be 106.77 ± 46.19 ng/ml∗h. Further, under setting [2], the “AUC0‐∞” value was 128.95 ± 53.59 ng/ml∗h, the “AUMC0‐∞” value is 2190.95 ± 1741.10 ng/ml∗h^2, the CL is 145 ± 50.5 mL/min/kg and the V d was determined as 131.54 ± 23.79 L/kg.
In the case of `O=C(O)[C@H]1O[C@@H](Oc2cc3oc(-c4ccccc4)cc(=O)c3c(O)c2O)[C@H](O)[C@@H](O)[C@@H]1O` [Baicalin, baicalin], the Cmax under setting [1] is > 2500 ng/mL. Under setting [2], the Tmax is 2.8 ± 1.1 h, the half-life was 5.01 ± 0.52 h, the MRT came out at 8.71 ± 2 h and the “AUC0‐t” value came to 26525.1 ± 15523.7 ng/ml∗h. Besides, under setting [2], the “AUC0‐∞” value turned out to be 26566.8 ± 15520.4 ng/ml∗h, the “AUMC0‐∞” value came to 229094.2 ± 146621.6 ng/ml∗h^2, the C max was found to be 2983.4 ± 1344.3 ng/mL and the CL is 28.5 ± 15 mL/min/kg. The compound also yielded a V d under setting [2] of 12.89 ± 8.01 L/kg.
As to `O=C(/C=C/c1ccc(O)c(O)c1)O[C@@H]1C[C@](O)(C(=O)O)C[C@@H](O)[C@H]1O` [Chlorogenic acid, chlorogenic acid], under setting [1], the Cmax stood at 3.53 ± 0.52 ng/mL. Under setting [2], the half-life is 16.7 ± 3.32 h, the MRT was 15.4 ± 3.31 h, the “AUC0‐t” value turned out to be 17.05 ± 2.86 ng/ml∗h and the “AUC0‐∞” value stood at 21.95 ± 3.34 ng/ml∗h. Under setting [2], the “AUMC0‐∞” value is reported as 338.84 ± 99.46 ng/ml∗h^2, the CL came out at 697.2 ± 113 mL/min/kg and the V d was 1001.03 ± 202.53 L/kg.
Regarding `O=C(O)[C@H](O)Cc1ccc(O)c(O)c1` [Danshensu], under setting [2], the “AUC0‐t” value was 556.04 ng/ml∗h and 556.04 ± 165.66 ng/ml∗h; the “AUC0‐∞” value is 569.72 ng/ml∗h and 569.72 ± 165.31 ng/ml∗h; the “AUMC0‐∞” value was found to be 2049.56 ± 1061.35 ng/ml∗h^2; the C max turned out to be 181.79 ± 59.58 ng/mL. In addition, under setting [2], the CL was found to be 41.2 ± 14.3 mL/min/kg, the “MRT0‐∞” value is reported as 3.56 ± 1.71 h, the V d stood at 13.67 ± 8.51 L/kg and the “t 1/2” value is listed as 3.91 ± 2.34 h.
Consider `COc1cc(/C=C/C(=O)O)ccc1O` [Ferulic acid, ferulic acid], for which, for the setting “rat, in vivo, po, 10 g/kg/day”, the “AUC0‐t” value is reported as 76.39 ± 21.43 ng/ml∗h, the “AUC0‐∞” value turned out to be 95.70 ± 25.36 ng/ml∗h, the “MRT0‐∞” value was 12.50 ± 4.16 h and the V d turned out to be 18.01 ± 5.2 L/kg.
Turning to `O=c1c(O[C@@H]2O[C@H](CO)[C@@H](O)[C@H](O)[C@H]2O)c(-c2ccc(O)c(O)c2)oc2cc(O)cc(O)c12` [Isoquercitrin, isoquercitrin], the highest concentration (Cmax) under setting [1] was 1.65 ± 0.23 ng/mL. Besides, under setting [2], the Tmax was found to be 0.5 h, the half-life was 26.4 ± 3.89 h, the MRT worked out at 33.7 ± 3.63 h and the “AUC0‐t” value worked out at 4.75 ± 0.68 ng/ml∗h. In addition, under setting [2], the “AUC0‐∞” value came to 8.98 ± 1.33 ng/ml∗h, the “AUMC0‐∞” value came out at 304.35 ± 69.29 ng/ml∗h^2, the CL worked out at 56.7 ± 8.33 mL/min/kg and the V d turned out to be 127.91 ± 13.82 L/kg.
As for `O=C(/C=C/c1ccc(O)c(O)c1)O[C@H]1[C@H](O[C@@H]2O[C@H](CO)[C@@H](O)[C@H](O)[C@H]2O)[C@@H](O)[C@H](OCCc2ccc(O)c(O)c2)O[C@@H]1CO` [Plantamajoside, plantamajoside], under setting [2], the “AUC0‐t” value was determined as 3.99 ± 0.44 ng/ml∗h, the “AUC0‐∞” value amounted to 5.01 ± 0.71 ng/ml∗h, the “AUMC0‐∞” value is 66.31 ± 28.63 ng/ml∗h^2 and the C max amounted to 1.31 ± 0.23 ng/mL. Moreover, under setting [2], the CL was 78 ± 12.8 mL/min/kg, the “MRT0‐∞” value was 12.76 ± 4.47 h, the T max was found to be 1.40 ± 0.22 h and the V d was 79.97 ± 18.00 L/kg. Under setting [2], the “t 1/2” value came out at 12.33 ± 3.92 h.
For `O=C(O)c1ccc(O)c(O)c1` [Protocatechuic acid, protocatechuic acid], the Cmax under setting [1] turned out to be 26.2 ± 11.6 ng/mL. In addition, under setting [2], the time of peak concentration (Tmax) came to 0.5 h, the half-life is 11.3 ± 2.23 h, the MRT was determined as 6.6 ± 2.26 h and the “AUC0‐t” value was determined as 41.96 ± 11.42 ng/ml∗h. Besides, under setting [2], the “AUC0‐∞” value was 45.80 ± 12.60 ng/ml∗h, the “AUMC0‐∞” value was 307.02 ± 152.54 ng/ml∗h^2, the CL worked out at 25.3 ± 7.83 mL/min/kg and the V d was 24.09 ± 4.86 L/kg.
As to `C[N+]1(C)CCC[C@H]1C(=O)[O-]` [Stachydrine, stachydrine], under setting [2], the “AUC0‐t” value is 39256.8 ± 4031.7 ng/ml∗h, the “AUC0‐∞” value is given as 40196.0 ± 4088.2 ng/ml∗h, the “AUMC0‐∞” value was determined as 515393.7 ± 55002.7 ng/ml∗h^2 and the C max was determined as 2673.0 ± 163.0 ng/mL. For the same compound, under setting [2], the CL stood at 1 ± 0.17 mL/min/kg, the “MRT0‐∞” value is recorded as 12.82 ± 0.25 h, the T max was found to be 3.20 ± 1.10 h and the V d came out at 0.76 ± 0.11 L/kg. Moreover, under setting [2], the “t 1/2” value amounted to 9.09 ± 0.51 h. Further, the C max (rat plasma, oral administration of Shenyanyihao oral solution 10 g/kg/day, n = 6, mean ± SD, listed as stachydine) is > 2500 ng/mL.
